Data on three molecules can be found in publication PMC5887547, “An allosteric inhibitor of Mycobacterium tuberculosis ArgJ: Implications to a novel combinatorial therapy” (EMBO Molecular Medicine, 2018).

The target of series [1] is T1, Ornithine acetyltransferase (MtArgJ) (Mycobacterium tuberculosis, UniProt P9WPZ3).
T1 construct: gene argJ
In words: […]; marginal decrease of enzyme activity (TLC assay). It counts as binding.

Series [2] addresses T1, Ornithine acetyltransferase (MtArgJ). Kind of series: thermal shift assay (apparent Kd); also ANS displacement ([…]) and enzyme inhibition by TLC assay (Dixon Ki […]). In kind it is binding.
Series [3] concerns CC(=O)N[C@@H](CCCN)C(=O)O. Kind of series: purified protein. The settings on record: active (substrate-binding) site.

T1 sequence (P9WPZ3 1-199): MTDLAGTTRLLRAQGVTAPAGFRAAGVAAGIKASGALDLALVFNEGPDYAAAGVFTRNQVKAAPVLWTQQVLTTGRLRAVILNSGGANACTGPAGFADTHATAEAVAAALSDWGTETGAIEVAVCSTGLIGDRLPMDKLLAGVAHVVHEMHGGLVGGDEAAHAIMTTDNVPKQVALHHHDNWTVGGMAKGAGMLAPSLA
T1 sequence (P9WPZ3 200-404): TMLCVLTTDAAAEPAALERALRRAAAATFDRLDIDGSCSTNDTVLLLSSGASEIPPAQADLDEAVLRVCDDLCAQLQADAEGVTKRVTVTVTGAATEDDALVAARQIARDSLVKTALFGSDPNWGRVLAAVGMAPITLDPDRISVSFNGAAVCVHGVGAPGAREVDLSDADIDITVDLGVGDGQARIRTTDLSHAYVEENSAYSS

On to `O=S(=O)(O)c1cccc2cccc(Nc3ccccc3)c12` [ANS, 8‐anilinonaphthalene‐1‐sulfonic acid], for which the Kd in series [1] worked out at 937 µM. Turning to `O=C(Nc1cccc2c(=O)cc(-c3nnn[nH]3)oc12)c1ccc(OCCCCc2ccccc2)cc1` [PRK, Pranlukast], the Kd in series [2] is 126 µM. What is called Km is the substrate concentration at which the rate is half of its maximum. As to “Ornithine acetyltransferase (MtArgJ) (Mycobacterium tuberculosis H37Rv)”, in series [3], the Km is 91.8 µM.
